Assay results from patent US20100324081A1, “PREVENTIVE, INHIBITOR OR REMEDY FOR CEREBRAL ANEURYSM COMPRISING IBUDILAST AS AN ACTIVE INGREDIENT” (Kyorin Pharmaceutical Co., Ltd., priority 2007, published 2010).

How the values were obtained:
[1] = test system: female rat animal model used for generating cerebral aneurysm; conditions: hormone substitution therapy, estrogen-deficient female rat model; Non-Patent Document 7; cited from earlier work
[2] = test system: rat cerebral aneurysm model; assay: Cerebral aneurysm formation-inhibitory effect on rat cerebral aneurysm model (vascular corrosion cast staging); assay type: in vivo, Sprague-Dawley rats; conditions: for Analysis χ^2 Test (P vs control group) / Number of cases at Stage 1 (irregularity of vascular endothelia at the branched portion) / Number of cases at Stage 2 (slight outward projection) / Number of cases at Stage 0 (no irregularity, no outward projection): 12 weeks, 15 cases
Experimental: Cerebral aneurysm models of rats were prepared, Ibudilast was administered to these animals at a dose of […] through the oral route.
In this experiment, 7-week-old Sprague-Dawley rats were used and the posterior nenal arteries at both sides of test animal were ligated and the right side common carotid artery of each test animal was likewise ligated (the preparation of a cerebral aneurysm model of rat: see Non-Patent Document 7 specified above). After one week from the foregoing treatments, the administration of a 1% physiological saline was initiated. Then, the ovaries of each test animal on the both sides were excised after 4 weeks from the initial operation. Starting from the day subsequent to the excision, a 5% gum Arabic solution (control group) and Ibudilast were orally administered to these test animals through the use of an oral probe (sound).
The numbers of cases examined herein were as follows:
Control Group (the animal group administered at a dose of 0 mg/kg/day): 20 cases;
Ibudilast (30 mg/kg/day)-Administered Group: 15 cases; and
Ibudilast (60 mg/kg/day)-Administered Group: 15 cases.
After 12 weeks from the initiation of the administration, the rats were sacrificed, and a resin (curable resin: Baston No. 17 Plastic (manufactured and sold by Polyscience Inc.)) was injected into the blood vessels of the animals to thus form a vascular corrosion cast. Then, each branched portion of the left anterior cerebral artery-olfactory artery present in the vascular corrosion cast was examined using an electron microscope. The evaluation of the results obtained was carried out under the blind conditions to thus estimate the progress of the formation of any cerebral aneurysm according to the following criteria:
Evaluation Criteria of Vascular Corrosion Cast:
Stage 0: There was not observed any […] irregularity and any outward projection;
Stage 1: There was observed irregularity of vascular endothelia at the branched portion;
Stage 2: There was observed a slight and outward projection; and
Stage 3: There was observed a substantial and outward projection or a projection which reaches even to the apex of the branched portion.

In the case of C[C@]12CC[C@@H]3c4ccc(O)cc4CC[C@H]3[C@@H]1CC[C@@H]2O [17β-estradiol], the “Effect on cerebral aneurysm formation (in words)” value [1] is given as “the formation of any cerebral aneurysm is suppressed”.

For CC(C)C(=O)c1c(C(C)C)nn2ccccc12 [Ibudilast], the “Analysis χ^2 Test (P vs control group)” value ([2]; Ibudilast 30 mg/kg/day oral) was “P < 0.005”, the “Number of cases at Stage 1 (irregularity of vascular endothelia at the branched portion)” value ([2]; Ibudilast 30 mg/kg/day oral) was 7 and the “Number of cases at Stage 2 (slight outward projection)” value ([2]; Ibudilast 30 mg/kg/day oral) was 3. The “Number of cases at Stage 0 (no irregularity, no outward projection)” value ([2]; Ibudilast 30 mg/kg/day oral, vascular corrosion cast, left anterior cerebral artery-olfactory artery branch) was 4, the “Analysis χ^2 Test (P vs control group)” value ([2]; Ibudilast 60 mg/kg/day oral) was “P < 0.005” and the “Number of cases at Stage 0 (no irregularity, no outward projection)” value ([2]; Ibudilast 60 mg/kg/day oral) was 4. For the same compound, the “Number of cases at Stage 1 (irregularity of vascular endothelia at the branched portion)” value ([2]; Ibudilast 60 mg/kg/day oral) was 6, the “Number of cases at Stage 2 (slight outward projection)” value ([2]; Ibudilast 60 mg/kg/day oral) was 5 and the “Effect on cerebral aneurysm formation (overall, in words)” value ([2]; cerebral aneurysm model of rat, oral administration) was “excellent effect of cerebral aneurysm formation-preventive or suppression”.
